The record followed here is PMC11022890 (Drug Metabolism and Disposition, 2021).

One data set addresses T1, UGT1A1 (Homo sapiens, UniProt P22309).
T1 sequence (P22309 26-533): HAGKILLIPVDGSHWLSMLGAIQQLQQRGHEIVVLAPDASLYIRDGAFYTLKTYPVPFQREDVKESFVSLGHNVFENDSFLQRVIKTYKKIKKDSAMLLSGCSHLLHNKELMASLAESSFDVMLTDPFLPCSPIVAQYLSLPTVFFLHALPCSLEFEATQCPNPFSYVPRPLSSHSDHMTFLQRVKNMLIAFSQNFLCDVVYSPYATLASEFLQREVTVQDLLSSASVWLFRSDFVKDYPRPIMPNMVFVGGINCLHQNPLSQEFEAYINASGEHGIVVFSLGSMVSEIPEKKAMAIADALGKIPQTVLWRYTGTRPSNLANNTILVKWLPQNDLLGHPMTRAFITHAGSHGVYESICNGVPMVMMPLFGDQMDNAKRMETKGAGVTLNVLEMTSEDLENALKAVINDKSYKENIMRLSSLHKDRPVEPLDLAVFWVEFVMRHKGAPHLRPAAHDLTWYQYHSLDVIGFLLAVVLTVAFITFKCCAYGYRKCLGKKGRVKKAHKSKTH
Nature of the data set: Screening: inhibition of β-estradiol glucuronidation in rUGT1A1 microsomes. The format is in vitro ADME. Particulars: 10 or 100 µM.

The next data set deals with T2, UGT2B7 (Homo sapiens, UniProt P16662).
T2 sequence (P16662 24-529): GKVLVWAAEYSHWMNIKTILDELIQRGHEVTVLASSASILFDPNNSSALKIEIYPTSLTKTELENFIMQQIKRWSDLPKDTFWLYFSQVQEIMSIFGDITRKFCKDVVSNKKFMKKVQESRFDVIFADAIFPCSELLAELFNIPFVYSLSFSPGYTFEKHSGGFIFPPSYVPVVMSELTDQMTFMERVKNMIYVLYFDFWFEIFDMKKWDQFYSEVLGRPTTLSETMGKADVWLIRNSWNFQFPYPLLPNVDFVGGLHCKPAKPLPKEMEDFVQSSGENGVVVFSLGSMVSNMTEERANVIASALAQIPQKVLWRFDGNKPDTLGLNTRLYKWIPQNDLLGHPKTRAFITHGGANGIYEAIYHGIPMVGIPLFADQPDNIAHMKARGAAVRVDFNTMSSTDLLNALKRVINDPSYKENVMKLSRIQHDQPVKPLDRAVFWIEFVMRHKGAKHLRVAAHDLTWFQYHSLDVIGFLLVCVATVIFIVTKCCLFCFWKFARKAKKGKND
Type of data set: in vitro ADME. Particulars: rUGT2B7 microsomes.

Data set [1] concerns the target T3, UGT1A9 (Homo sapiens, UniProt O60656).
T3 sequence (O60656 26-530): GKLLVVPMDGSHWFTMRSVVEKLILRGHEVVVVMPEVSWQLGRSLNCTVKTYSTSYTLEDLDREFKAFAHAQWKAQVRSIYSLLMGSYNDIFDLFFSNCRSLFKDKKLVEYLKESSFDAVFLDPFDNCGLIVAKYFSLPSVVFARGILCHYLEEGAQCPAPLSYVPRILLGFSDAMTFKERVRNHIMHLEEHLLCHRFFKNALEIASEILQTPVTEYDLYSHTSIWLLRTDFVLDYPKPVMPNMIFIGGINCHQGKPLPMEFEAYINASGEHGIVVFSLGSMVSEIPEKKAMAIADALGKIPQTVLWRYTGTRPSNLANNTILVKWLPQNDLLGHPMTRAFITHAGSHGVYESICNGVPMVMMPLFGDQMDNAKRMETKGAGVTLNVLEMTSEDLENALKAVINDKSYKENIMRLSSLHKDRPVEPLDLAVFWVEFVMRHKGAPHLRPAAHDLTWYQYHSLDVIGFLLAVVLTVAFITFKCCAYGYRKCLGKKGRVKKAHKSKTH
Nature of the data set: Inhibition of furosemide glucuronidation in rUGT1A9 microsomes. The format is in vitro ADME.

Another data set deals with T4, UGT1A3 (Homo sapiens, UniProt P35503).
T4 sequence (P35503 29-534): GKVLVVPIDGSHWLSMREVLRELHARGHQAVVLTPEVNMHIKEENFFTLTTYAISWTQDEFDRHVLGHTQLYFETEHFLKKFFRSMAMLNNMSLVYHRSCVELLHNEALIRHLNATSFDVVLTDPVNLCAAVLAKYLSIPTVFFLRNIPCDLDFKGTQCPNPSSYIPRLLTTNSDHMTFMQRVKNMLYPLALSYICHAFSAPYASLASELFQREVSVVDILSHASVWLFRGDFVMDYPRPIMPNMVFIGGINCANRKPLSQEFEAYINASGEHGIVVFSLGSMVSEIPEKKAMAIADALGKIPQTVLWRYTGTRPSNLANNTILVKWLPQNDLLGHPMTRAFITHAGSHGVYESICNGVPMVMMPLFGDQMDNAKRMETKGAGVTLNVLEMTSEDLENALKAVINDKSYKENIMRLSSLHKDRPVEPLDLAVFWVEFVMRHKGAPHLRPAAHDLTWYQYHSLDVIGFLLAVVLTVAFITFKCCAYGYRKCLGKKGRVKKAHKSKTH
Type of data set: in vitro ADME. As to conditions: rUGT1A3 microsomes; 10 or 100 µM.

The target in data set [2] is T5, UGT1A9 in human kidney microsomes (Homo sapiens, UniProt O60656).
T5 sequence (O60656 26-530): T3 sequence (O60656 26-530)
Nature of the data set: Inhibition of acetaminophen glucuronidation. Particulars: HKM.

Data set [3] has as its target T5, UGT1A9 in human kidney microsomes. Nature of the data set: Inhibition of propofol glucuronidation. As to conditions: HKM.
In data set [4] the target is T3, UGT1A9. Nature of the data set: in vitro. Particulars: both, HLM.
Data set [5] has as its target T5, UGT1A9 in human kidney microsomes. Nature of the data set: Inhibition of furosemide glucuronidation. As to conditions: HKM.
Data set [6] deals with T3, UGT1A9. Nature of the data set: Inhibition of acetaminophen glucuronidation in rUGT1A9 microsomes. As to conditions: IC50, probe substrate acetaminophen. The format is in vitro ADME.
[7] abbreviates: IC50, probe substrate furosemide.
[8] abbreviates: IC50,u (binding-corrected IC50), probe substrate furosemide.
The mark [9] stands for this setting: IC50, probe substrate acetaminophen.
The mark [10] stands for this setting: IC50,u (binding-corrected IC50), probe substrate acetaminophen.
[11] abbreviates: IC50,u (binding-corrected IC50), probe substrate propofol.

As a reminder, the IC50 is the concentration needed to halve the response being measured. A high value points to lower potency. Turning to `C=C(C)[C@@H]1CCC(C)=C[C@H]1c1c(O)cc(CCCCC)cc1O` [CBD, cannabidiol], the “inhibition in screening (in words)” value against UGT1A1 and against UGT1A3 was “no significant inhibition” each time. Also, at UGT2B7 (10 µM, zidovudine, screening), the “inhibition vs control without cannabinoid” value came to 58%. Besides, the IC50 came to 2400 ± 660 nM against UGT1A9 [1] (setting [7]); 90 ± 25 nM at UGT1A9 [1] (setting [8]); 3800 ± 820 nM in data set [2] (setting [9]); 240 ± 50 nM in data set [2] (setting [10]); 5500 ± 560 nM in data set [3] (IC50, probe substrate propofol); 340 ± 35 nM in [3] (setting [11]). Moreover, the IC50 at UGT1A9 [4] (setting [9]) stood at 12000 ± 3200 nM; at UGT1A9 [4] (setting [10]), 640 ± 160 nM; in [5] (setting [7]), 3600 ± 800 nM; in data set [5] (setting [8]), 220 ± 49 nM; at UGT1A9 [6], 1900 ± 290 nM.

On to `CCCCCc1cc(O)c2c(c1)OC(C)(C)c1ccc(C)cc1-2` [CBN, cannabinol], for which the “inhibition in screening (in words)” value was “no significant inhibition” against UGT1A1, “significant inhibition” against UGT2B7 (10 or 100 µM) and “no significant inhibition” against UGT1A3. In addition, the IC50 amounted to 9200 ± 2100 nM on UGT1A9 [1] (setting [7]); 780 ± 180 nM at UGT1A9 [1] (setting [8]); 21000 ± 3400 nM in data set [2] (setting [9]); 2600 ± 410 nM in data set [2] (setting [10]); 7500 ± 1700 nM in data set [3] (IC50, probe substrate propofol); 900 ± 200 nM in data set [3] (setting [11]). The IC50 at UGT1A9 [4] (setting [9]) worked out at 34000 ± 6300 nM; on UGT1A9 [4] (setting [10]), 3100 ± 580 nM; in [5] (setting [7]) it was 15000 ± 770 nM; in data set [5] (setting [8]), 1900 ± 92 nM; against UGT1A9 [6], 6900 ± 540 nM.
